Measurements taken from patent US20250360179A1, “PEPTIDE-IONIC LIQUID CONJUGATE FOR THE PREVENTION AND/OR TREATMENT OF SKIN DISORDERS” (UNIVERSIDADE DO PORTO, priority 2022, published 2025).
Where “and” joins values, the source holds several entries; their conditions need not be identical. Identical values can stand only once. Like-named read-outs stand apart in the source and are kept apart here. Marks after values point to notes of the source that are not given here. Residues, ends and D or L forms follow the SMILES beside them. *: point of attachment. X1 = CCCCCCCCCCCCCCCCn1cc[n+](Cc2cn(CC(=O)*)nn2)c1; X2 = Cn1cc[n+](Cc2cn(CC(=O)*)nn2)c1

Tests used:
Assay type in all cases: cell-based
[1] = test system: human dermal fibroblasts (HDF); assay: Collagen production in vitro (Sircol kit); settings: 5 μM, versus negative control
Protocol: FIG. 3—Collagen synthesis by Human Dermal Fibroblasts (HDF), in presence of C16-KTTKS-OH (Matrixyl®), KTTK (C16Im)S and C16Im-KTTKS at 5 μM, using the Sircol™ Kit. Data are presented as mean±SEM (3 independent experiments in triplicates) expressed in collagen amount (% of control); *p<0.05, **p<0.01.
The point of conjugating antimicrobial ILs to a collagenesis-inducing peptide was to afford a simple construct able to exert a dual antimicrobial and skin rebuilding action. Therefore, the two best IL-KTTKS conjugates were further tested for their ability to promote collagen production by human dermal fibroblasts (HDF) in vitro. This was assessed using the Sircol® kit assay, whereby the amount of newly formed collagen in the ECM that is deposited in the microwell-plated cell cultures is solubilized in an acidic medium and next quantified through a collagen standard curve according to the Sircol® kit assay procedure (55). Assays were conducted in different conditions for comparison, namely, in the presence of the reference cosmeceutical Matrixyl® (positive control—C16-KTTKS-OH), of the test conjugates KTTK(C16Im)S and C16Im-KTTKS, and in the absence of any peptide (negative control).

[2] = test system: E. faecalis ATCC 29212; assay: MIC (CLSI) against E. faecalis ATCC 29212; settings: E. faecalis ATCC 29212, n = 3
[3] = test system: S. pyogenes ATCC 19615; assay: MIC (CLSI) against S. pyogenes ATCC 19615; settings: S. pyogenes ATCC 19615, n = 3
[4] = test system: Candida glabrata (ATCC 90030); assay: Antifungal MIC (EUCAST) against C. glabrata; settings: C. glabrata ATCC 90030, n = 2
[5] = test system: P. aeruginosa (PA004) MDR clinical isolate; settings: MDR isolate PA004, n = 3
[6] = test system: Gram-negative and Gram-positive bacteria (ATCC reference strains); assay: Antibacterial activity against ATCC reference strains, statements across species; settings: Gram-positive species at MIC values
Protocol: The antimicrobial activity of the IL-KTTKS conjugates was assessed in vitro against reference bacterial strains (American Type Culture Collection, ATCC). The minimal inhibitory concentration (MIC) was determined according to the Clinical and Laboratory Standards Institute (CLSI) guidelines (43) against Gram-positive (S. aureus, E. faecalis) and Gram-negative (E. coli, P. aeruginosa) bacteria. […] IL are in agreement with those previously reported (44).

[7] = test system: S. aureus (ATCC 29213); assay: MIC and MBC in MHB and simulated wound fluid (SWF); settings: for MBC: S. aureus ATCC 29213 in MHB, n = 3; for antibacterial activity in simulated wound fluid (SWF): S. aureus, SWF compared with MHB
Protocol: The antibacterial activity of C16Im-KTTKS and KTTK(C16Im)S was also assessed in SWF (50) against S. aureus (ATCC 29213), to check if it was preserved in this medium.

[8] = test system: S. aureus (SA007) MDR clinical isolate; settings: for MIC: MDR isolate SA007, n = 3
[9] = test system: Candida albicans (ATCC 90028); assay: Antifungal MIC (EUCAST) against C. albicans; settings: C. albicans ATCC 90028, n = 2
[10] = test system: K. pneumoniae (KP010) MDR clinical isolate; settings: MDR isolate KP010, n = 3
[11] = test system: S. aureus ATCC 29213; assay: MIC (CLSI) against S. aureus ATCC 29213; settings: S. aureus ATCC 29213, n = 3
[12] = test system: E. coli ATCC 25922; assay: MIC (CLSI) against E. coli ATCC 25922; settings: E. coli ATCC 25922, n = 3
[13] = test system: P. aeruginosa ATCC 27853; assay: MIC (CLSI) against P. aeruginosa ATCC 27853; settings: P. aeruginosa ATCC 27853, n = 3
[14] = test system: K. pneumonia ATCC 138830; assay: MIC (CLSI) against K. pneumoniae ATCC reference strain; settings: K. pneumonia ATCC 138830, n = 3
[15] = test system: Candida parapsilosis (ATCC 22019); assay: Antifungal MIC (EUCAST) against C. parapsilosis; settings: C. parapsilosis ATCC 22019, n = 2
[16] = test system: S. epidermidis ATCC 14990; assay: MIC (CLSI) against S. epidermidis ATCC 14990; settings: S. epidermidis ATCC 14990, n = 3

Structure (SMILES) | MIC [2] | MIC [4] | MIC [9] | MIC [11] | MIC [12] | MIC [13] | MIC [14] | MIC [15] | further results
CCCCCCCCCCCCCCCCn1cc[n+](Cc2cn(CC(=O)N[C@@H](CCCCN)C(=O)N[C@H](C(=O)N[C@H](C(=O)N[C@@H](CCCCN)C(=O)N[C@@H](CO)C(N)=O)[C@@H](C)O)[C@@H](C)O)nn2)c1 [Peptide C16Im-KTTKS] (X1-KTTKS-NH2; N-terminus and C-terminus assumed) | (28.0) μg/mL | (4.6) μg/mL | 4.6 µg/mL | (14.0) μg/mL | (14.0) μg/mL | (28.0) μg/mL | (26.8) μg/mL | (2.3) μg/mL | collagen production (collagen amount, % of control) [1]: produce more collagen; MIC [3]: (18.5) μg/mL; MIC [5]: (18.5) μg/mL; bacteriostatic or bactericidal action [6]: bactericidal; MBC [7]: [32-64] μg/mL; antibacterial activity in simulated wound fluid (SWF) [7]: retain; MIC relative to that of ciprofloxacin ([8]; MDR isolate SA007): ~10 fold; MIC [8]: (18.5)^a μg/mL; MIC [10]: (37.0) μg/mL; MIC [16]: (9.3) μg/mL
C[C@@H](O)[C@H](NC(=O)[C@@H](NC(=O)[C@@H](N)CCCCN)[C@@H](C)O)C(=O)N[C@@H](CCCCn1cc(C[n+]2ccn(C)c2)nn1)C(=O)N[C@@H](CO)C(N)=O [KTTK(MeIm)S] | > 954.2 μM and > 677.3 μg/mL |  |  | > 954.2 μM and > 677.3 μg/mL | > 677.3 µg/mL | > 954.2 μM and > 677.3 μg/mL |  |  | 
CCCCCCCCCCCCCCCCn1cc[n+](Cc2cn(CCCC[C@H](NC(=O)[C@@H](NC(=O)[C@@H](NC(=O)[C@@H](N)CCCCN)[C@@H](C)O)[C@@H](C)O)C(=O)N[C@@H](CO)C(N)=O)nn2)c1 [KTTK(C16Im)S] | (29.9) μg/mL | (5.0) μg/mL | 5.0 µg/mL | (12.9) μg/mL | (6.45) μg/mL | (29.9) μg/mL | (49.5) μg/mL | (2.5) μg/mL | collagen production (collagen amount, % of control) [1]: produce more collagen; MIC [3]: (10.0) μg/mL; MIC [5]: 21.7 μM and 20.0 μg/mL; bacteriostatic or bactericidal action [6]: bactericidal; MBC [7]: [64-128] μg/mL; antibacterial activity in simulated wound fluid (SWF) [7]: slightly decrease; MIC [8]: 21.7 μM and 20.0 μg/mL; MIC [10]: 20.0 µg/mL; MIC [16]: (5.0) μg/mL
CCCCCCCCCCCCCCCCn1cc[n+](C)c1.[Br-] [[C16M1Im][Br], reference compound] | 0.94^c μM | 0.93 µM | 0.93 µM | 0.94^d μM | 60 µM | >240 µM | 60 µM | 0.93 µM | 
C[C@@H](O)[C@H](NC(=O)[C@H](CCCCN)NC(=O)Cn1cc(C[n+]2ccn(C)c2)nn1)C(=O)N[C@H](C(=O)N[C@@H](CCCCN)C(=O)N[C@@H](CO)C(N)=O)[C@@H](C)O [MeIm-KTTKS] (X2-KTTKS-NH2; N-terminus and C-terminus assumed) | > 825.9 μM and > 633.4 μg/mL |  |  | > 825.9 μM and > 633.4 μg/mL | > 633.4 µg/mL | > 825.9 μM and > 633.4 μg/mL |  |  | 
C[C@@H](O)[C@H](NC(=O)[C@@H](NC(=O)[C@@H](N)CCCCn1cc(C[n+]2ccn(C)c2)nn1)[C@@H](C)O)C(=O)N[C@@H](CCCCn1cc(C[n+]2ccn(C)c2)nn1)C(=O)N[C@@H](CO)C(N)=O [K(MeIm)TTK(MeIm)S] | > 1245.5 μM and > 1067.4 μg/mL |  |  | > 1245.5 μM and > 1067.4 μg/mL | > 1067.4 µg/mL | > 1245.5 μM and > 1067.4 μg/mL |  |  | 
CCCCCCCCCCCCCCn1cc[n+](Cc2cn(CCCC[C@H](NC(=O)[C@@H](NC(=O)[C@@H](NC(=O)[C@@H](N)CCCCN)[C@@H](C)O)[C@@H](C)O)C(=O)N[C@@H](CO)C(N)=O)nn2)c1 [KTTK(C14Im)S] | (52.6)^b μg/mL |  |  | (26.3) μg/mL | (26.3) μg/mL | (52.6)^b μg/mL |  |  | 
OC(Cn1cncn1)(Cn1cncn1)c1ccc(F)cc1F [Fluconazole, reference compound] |  |  |  |  |  |  |  |  | MIC ([4]; Nakaseomyces glabratus, ATCC90030, read-out: MIC): 8 µg/mL; MIC ([9]; Candida albicans, ATCC90028, read-out: MIC): 0.5 µg/mL; MIC ([15]; ATCC22019, read-out: MIC): 2 µg/mL
C[C@@H](O)[C@H](NC(=O)[C@@H](NC(=O)[C@@H](N)CCCCn1cc(C[n+]2ccn(C)c2)nn1)[C@@H](C)O)C(=O)N[C@@H](CCCCN)C(=O)N[C@@H](CO)C(N)=O [K(MeIm)TTKS] | > 1030.1 μM and > 731.2 μg/mL |  |  | > 1030.1 μM and > 731.2 μg/mL | > 731.2 µg/mL | > 1030.1 μM and > 731.2 μg/mL |  |  | 
